PubChem BioAssay AID1963982 (Molecular Pharmacology Branch, DTP, NCI, 2024)

Tested on: 313798-341-R-J2-PDC spheroids, viability
Assay: Anticancer human tumor 313798-341-R-J2-PDC patient-derived cervical squamous cell carcinoma cell line growth inhibition [PI3K]
Details: spheroids with HUVEC and MSC; for viability, T/C: stronger effect = lower value; active means viability on the fitted dose curve at most 10% of control; inactive means the rest
From the text: Combinatorial screen of targeted agents with the PI3K inhibitors inavolisib, alpelisib, duvelisib, and copanlisib in multi-cell type tumor spheroids
A high-throughput screen of multi-cell type tumor spheroids was designed to identify active combinations of targeted small molecules and PI3K pathway inhibitors. Complex spheroids include a stromal component modeled by human endothelial cells (HUVEC) and fibroblasts modeled by human mesenchymal stem cells (MSCs). The concentration ranges selected for each drug and investigational agent were based upon clinically achievable concentrations if the clinical Cmax of the agent was known.
Compounds. The drugs and investigational agents: inavolisib (NSC800729), alpelisib (NSC765974), duvelisib (NSC772469), copanlisib (NSC816437), ipatasertib (NSC767898), afuresertib (NSC778305), talazoparib (NSC767125), sapanisertib (NSC764658), selumetinib (NSC741078), tovorafenib (DAY101, NSC766906), vemurafenib (NSC761431), ravoxertinib (NSC781343), sotorasib (NSC818433), MRTX1133 (NSC 836407), abemaciclib (NSC 768073), palbociclib (NSC758247), venetoclax (NSC 766270), SY5609 (NSC837396), enzalutamide (NSC755605), and darolutamide (NSC825331), were obtained from the National Cancer Institute (NCI) Developmental Therapeutics Program Chemical Repository. The FDA-approved anticancer drug set is available from the NCI Developmental Therapeutics Program. […] The stock solutions were prepared in dimethyl sulfoxide (DMSO, Sigma-Aldrich, St. Louis, MO, cat. D2650) at 800-fold the tested concentration and stored at -70 degrees C prior to their use. All drugs and investigational agents were tested over a range starting from a high concentration at or near the clinical Cmax and decreasing in half-log increments. If the clinical Cmax for an agent had not been determined, the highest concentration tested was 10 microM.
Cell Culture. All cells were maintained in an incubator at 37 degrees C and 5% CO2 with 95% humidity. The PDC lines were cultured according to standard operating procedures established by the NCI PDMR (https://pdmr.cancer.gov/sops/default.htm). All PDCs were thawed and cultured in Matrigel-coated flasks prepared with a working solution of 1X Ham's F-12 nutrient mix, without supplementation (Invitrogen, Waltham, MA, cat. 11765054), 100 U/mL penicillin-streptomycin (Invitrogen, cat. 15140122), and 2.5% Matrigel (Corning Inc., Corning, NY, cat. 354248) for the first three passages. The 354836-022-R-J1-PDC, 475296-252-R-J1-PDC, and 997726-040-R-J2-PDC lines were cultured in 6A media, which includes advanced DMEM/F-12 (Thermo Fisher Scientific, cat. 12634028), 10 mM HEPES (Thermo Fisher Scientific, cat. 15630080), 1X GlutaMAX supplement (Thermo Fisher Scientific, cat. 35050061), 0.1 mg/mL primocin (InvivoGen, San Diego, CA, cat. ant-pm-2), 10% defined fetal bovine serum, heat inactivated (HyClone Laboratories Inc., Logan, UT, cat. SH30070.03HI), 50% L-WRN conditioned media (ATCC, cat. CRL-3276), 1.25 mM N-Acetyl-L-cysteine (Sigma-Aldrich, cat. A9165), 10 mM nicotinamide (Sigma-Aldrich, cat. N0636), 1X B-27 supplement (Thermo Fisher Scientific, cat. 17504044), 1X N-2 supplement (Thermo Fisher Scientific, cat. 17502048), and 10 microM Y-27632 dihydrochloride (Tocris Bioscience, Bristol, United Kingdom, cat. 1254). The 624824-186-R-J2-PDC line was cultured in 6C/Colon 1B media, which includes all 6A media components plus 50 ng/mL human EGF recombinant protein (Thermo Fisher Scientific, cat. PHG0311). […]
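Further: spheroids exposed to compounds for seven days.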

C#Cc1c(F)ccc2cc(O)cc(-c3ncc4c(N5CC6CCC(C5)N6)nc(OCC56CCCN5CC(F)C6)nc4c3F)c12 (stereo unspecified)
> 10 µM: IC50 (curve of compound)
inactive: viability, T/C (compound 0.0316 µM) 102% [middle of 4 runs] | viability, T/C (compound 0.1 µM) 105% [middle of 4 runs] | viability, T/C (compound 0.316 µM) 108% [middle of 4 runs] | viability, T/C (compound 1 µM) 98.5% [middle of 4 runs] | viability, T/C (compound 3.16 µM) 106% [middle of 4 runs] | viability, T/C (compound 10 µM) 95.2% [middle of 4 runs]

Cn1ncc(Cl)c1-c1cc(C(=O)NC(CN)Cc2cccc(F)c2)sc1Cl (stereo unspecified)
inactive: viability, T/C (compound 0.0316 µM) 105% [middle of 4 runs] | viability, T/C (compound 0.1 µM) 97.5% [middle of 4 runs] | viability, T/C (compound 0.316 µM) 79.1% [middle of 4 runs] | viability, T/C (compound 1 µM) 49.9% [middle of 4 runs] | viability, T/C (compound 3.16 µM) 34.7% [middle of 4 runs] | viability, T/C (compound 10 µM) 34.5% [middle of 4 runs]
996 nM [middle of 4 runs]: IC50 (curve of compound)

Cn1cnc2c(F)c(Nc3ccc(Br)cc3Cl)c(C(=O)NOCCO)cc21 + CC(Nc1ccc2c(c1)OCCn1cc(N3C(=O)OCC3C(F)F)nc1-2)C(N)=O
active: viability, T/C (second compound 0.1 µM, first compound 3 µM) 4.42% | viability, T/C (second compound 0.316 µM, first compound 3 µM) 2.27% | viability, T/C (second compound 1 µM, first compound 3 µM) 1.11%
0.547 µM: IC50 (curve of first compound, second compound 0.0316 µM)
< 0.00949 µM: IC50 (curve of first compound, second compound 1 µM)
0.841 µM: IC50 (curve of first compound, second compound 0.01 µM)
inactive: viability, T/C (second compound 0.00316 µM, first compound 0.00949 µM) 87.2% | viability, T/C (second compound 0.00316 µM, first compound 0.03 µM) 107% | viability, T/C (second compound 0.00316 µM, first compound 0.0949 µM) 97.8% | viability, T/C (second compound 0.00316 µM, first compound 0.3 µM) 81.5% | viability, T/C (second compound 0.00316 µM, first compound 0.949 µM) 57.9% | viability, T/C (second compound 0.00316 µM, first compound 3 µM) 23.4% | viability, T/C (second compound 0.01 µM, first compound 0.00949 µM) 95.6% | viability, T/C (second compound 0.01 µM, first compound 0.03 µM) 103% | viability, T/C (second compound 0.01 µM, first compound 0.0949 µM) 96.1% | viability, T/C (second compound 0.01 µM, first compound 0.3 µM) 84.2% | viability, T/C (second compound 0.01 µM, first compound 0.949 µM) 46% | viability, T/C (second compound 0.01 µM, first compound 3 µM) 20.8% | viability, T/C (second compound 0.0316 µM, first compound 0.00949 µM) 97.6% | viability, T/C (second compound 0.0316 µM, first compound 0.03 µM) 92.8% | viability, T/C (second compound 0.0316 µM, first compound 0.0949 µM) 92.9% | viability, T/C (second compound 0.0316 µM, first compound 0.3 µM) 60.8% | viability, T/C (second compound 0.0316 µM, first compound 0.949 µM) 38.4% | viability, T/C (second compound 0.0316 µM, first compound 3 µM) 11.8% | viability, T/C (second compound 0.1 µM, first compound 0.00949 µM) 79.4% | viability, T/C (second compound 0.1 µM, first compound 0.03 µM) 69.9% | viability, T/C (second compound 0.1 µM, first compound 0.0949 µM) 66.2% | viability, T/C (second compound 0.1 µM, first compound 0.3 µM) 46% | viability, T/C (second compound 0.1 µM, first compound 0.949 µM) 29.9% | viability, T/C (second compound 0.316 µM, first compound 0.00949 µM) 57.9% | viability, T/C (second compound 0.316 µM, first compound 0.03 µM) 46.5% | viability, T/C (second compound 0.316 µM, first compound 0.0949 µM) 41.3% | viability, T/C (second compound 0.316 µM, first compound 0.3 µM) 28.8% | viability, T/C (second compound 0.316 µM, first compound 0.949 µM) 16.7% | viability, T/C (second compound 1 µM, first compound 0.00949 µM) 35.4% | viability, T/C (second compound 1 µM, first compound 0.03 µM) 34.2% | viability, T/C (second compound 1 µM, first compound 0.0949 µM) 30.1% | viability, T/C (second compound 1 µM, first compound 0.3 µM) 19.6% | viability, T/C (second compound 1 µM, first compound 0.949 µM) 9.79%
0.0261 µM: IC50 (curve of first compound, second compound 0.316 µM)
1.2 µM: IC50 (curve of first compound, second compound 0.00316 µM)
0.265 µM: IC50 (curve of first compound, second compound 0.1 µM)
